In PubChem BioAssay (NCI):
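Cultured in 96-well plates, cells were exposed to test compound for 48 hours across five concentrations. At the TGI there is no net growth.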

What was measured:
Test in all cases: growth of human tumour cells (NCI), 48 h
LOX IMVI melanoma = test system: LOX IMVI melanoma
SNB-75 CNS = test system: SNB-75 CNS
SNB-19 CNS = test system: SNB-19 CNS
SK-MEL-28 melanoma = test system: SK-MEL-28 melanoma
MALME-3M melanoma = test system: MALME-3M melanoma
K-562 leukemia = test system: K-562 leukemia
MDA-MB-435 = test system: MDA-MB-435
IGROV1 ovarian = test system: IGROV1 ovarian
SR leukemia = test system: SR leukemia
NCI/ADR-RES ovarian = test system: NCI/ADR-RES ovarian
HL-60(TB) leukemia = test system: HL-60(TB) leukemia
A498 renal = test system: A498 renal
SN12C renal = test system: SN12C renal
KM12 colon = test system: KM12 colon
OVCAR-8 ovarian = test system: OVCAR-8 ovarian
NCI-H460 lung = test system: NCI-H460 lung
T-47D breast = test system: T-47D breast
SF-539 CNS = test system: SF-539 CNS
786-0 renal = test system: 786-0 renal
SK-MEL-5 melanoma = test system: SK-MEL-5 melanoma
UACC-62 melanoma = test system: UACC-62 melanoma
COLO 205 colon = test system: COLO 205 colon
HCT-116 colon = test system: HCT-116 colon
OVCAR-4 ovarian = test system: OVCAR-4 ovarian
HOP-62 NSCLC = test system: HOP-62 NSCLC
SF-268 CNS = test system: SF-268 CNS
MDA-N = test system: MDA-N
TK-10 renal = test system: TK-10 renal
SK-MEL-2 melanoma = test system: SK-MEL-2 melanoma
MDA-MB-231 breast = test system: MDA-MB-231 breast
SF-295 CNS = test system: SF-295 CNS
HCC-2998 colon = test system: HCC-2998 colon
EKVX NSCLC = test system: EKVX NSCLC
HCT-15 colon = test system: HCT-15 colon
CAKI-1 renal = test system: CAKI-1 renal
MOLT-4 leukemia = test system: MOLT-4 leukemia
CCRF-CEM leukemia = test system: CCRF-CEM leukemia
HOP-92 NSCLC = test system: HOP-92 NSCLC
NCI-H23 lung = test system: NCI-H23 lung
RXF 393 renal = test system: RXF 393 renal
NCI-H522 lung = test system: NCI-H522 lung
OVCAR-3 ovarian = test system: OVCAR-3 ovarian
HT29 colon = test system: HT29 colon
UO-31 renal = test system: UO-31 renal
HS 578T breast = test system: HS 578T breast
NCI-H226 lung = test system: NCI-H226 lung
DU-145 prostate = test system: DU-145 prostate
ACHN renal = test system: ACHN renal
RPMI-8226 leukemia = test system: RPMI-8226 leukemia
M14 melanoma = test system: M14 melanoma
UACC-257 melanoma = test system: UACC-257 melanoma
SK-OV-3 ovarian = test system: SK-OV-3 ovarian
BT-549 breast = test system: BT-549 breast
U251 CNS = test system: U251 CNS
OVCAR-5 ovarian = test system: OVCAR-5 ovarian
MCF7 breast = test system: MCF7 breast
A549 NSCLC = test system: A549 NSCLC
PC-3 prostate = test system: PC-3 prostate
SW-620 colon = test system: SW-620 colon

SMILES: COc1ccc(O)c(/C=N/NC(=S)N2CCCCC2)c1
- TGI (LOX IMVI melanoma): > 46 µM
- TGI (SNB-75 CNS): > 100 µM
- TGI (SNB-19 CNS): > 94.9 µM
- TGI (SK-MEL-28 melanoma): > 83.4 µM
- TGI (MALME-3M melanoma): 37.3 µM
- TGI (K-562 leukemia): > 21.8 µM
- TGI (MDA-MB-435): > 100 µM
- TGI (IGROV1 ovarian): > 67.4 µM
- TGI (SR leukemia): > 24.5 µM
- TGI (NCI/ADR-RES ovarian): > 23.2 µM
- TGI (HL-60(TB) leukemia): > 23.1 µM
- TGI (A498 renal): > 41.5 µM
- TGI (SN12C renal): > 100 µM
- TGI (KM12 colon): > 100 µM
- TGI (OVCAR-8 ovarian): > 43.1 µM
- TGI (NCI-H460 lung): > 30.1 µM
- TGI (T-47D breast): > 89.5 µM
- TGI (SF-539 CNS): > 100 µM
- TGI (786-0 renal): > 78.2 µM
- TGI (SK-MEL-5 melanoma): 30.9 µM
- TGI (UACC-62 melanoma): 23.8 µM
- TGI (COLO 205 colon): > 100 µM
- TGI (HCT-116 colon): > 100 µM
- TGI (OVCAR-4 ovarian): > 100 µM
- TGI (HOP-62 NSCLC): > 20.1 µM
- TGI (SF-268 CNS): 62.9 µM
- TGI (MDA-N): > 100 µM
- TGI (TK-10 renal): > 100 µM
- TGI (SK-MEL-2 melanoma): > 100 µM
- TGI (MDA-MB-231 breast): > 100 µM
- TGI (SF-295 CNS): > 100 µM
- TGI (HCC-2998 colon): 19.6 µM
- TGI (EKVX NSCLC): > 65.3 µM
- TGI (HCT-15 colon): > 100 µM
- TGI (CAKI-1 renal): > 84.1 µM
- TGI (MOLT-4 leukemia): > 100 µM
- TGI (CCRF-CEM leukemia): > 47.8 µM
- TGI (HOP-92 NSCLC): 50.8 µM
- TGI (NCI-H23 lung): 20.4 µM
- TGI (RXF 393 renal): > 100 µM
- TGI (NCI-H522 lung): > 62.7 µM
- TGI (OVCAR-3 ovarian): > 13.4 µM
- TGI (HT29 colon): > 92.3 µM
- TGI (UO-31 renal): 6.22 µM
- TGI (HS 578T breast): > 100 µM
- TGI (NCI-H226 lung): 7.96 µM
- TGI (DU-145 prostate): > 43.1 µM
- TGI (ACHN renal): 23.3 µM
- TGI (RPMI-8226 leukemia): > 27.2 µM
- TGI (M14 melanoma): 10.9 µM
- TGI (UACC-257 melanoma): > 100 µM
- TGI (SK-OV-3 ovarian): > 100 µM
- TGI (BT-549 breast): > 94.8 µM
- TGI (U251 CNS): > 100 µM
- TGI (OVCAR-5 ovarian): > 100 µM
- TGI (MCF7 breast): > 100 µM
- TGI (A549 NSCLC): > 100 µM
- TGI (PC-3 prostate): > 100 µM
- TGI (SW-620 colon): > 100 µM
